Test results taken from PMC7433010, “Exploration of multi‐target effects of 3‐benzoyl‐5‐hydroxychromen‐2‐one in Alzheimer’s disease cell and mouse models” (Aging Cell, 2020).

What was measured:
Type in all cases: cell-based, human
[1] = tested on: BDNF; assay: Western blot of BDNF in ∆K280 TauRD‐DsRed SH‐SY5Y cells; conditions: 1 µM, uninduced 100%
Method: (§1) Total proteins from ∆K280 TauRD-DsRed SH-SY5Y cells were obtained using a RIPA buffer containing 50 mM Tris-HCl (pH8.0), 150 mM NaCl, 2 mM EDTA (pH8.0), 50 mM NaF, 0.1% SDS, 0.5% sodium deoxycholate, 1% NP40, and a protease inhibitor cocktail (Sigma-Aldrich). After sonication and sitting on ice for 20 min, the lysates were centrifuged at 14,000 × g for 30 min at 4°C. Protein concentrations were determined using a protein assay kit (Bio-Rad, Hercules, CA, USA), with albumin as a standard. Total proteins (20 µg) were electrophoresed on 10% or 12% SDS-polyacrylamide gel and transferred onto polyvinylidene difluoride (PVDF) membranes (Sigma-Aldrich) through reverse electrophoresis. […] Subsequently, immune complexes were detected using a horseradish peroxidase-conjugated goat anti-mouse or goat anti-rabbit IgG antibody (1:5000; GeneTex, Irvive, CA, USA) and a chemiluminescent substrate (Millipore).

[2] = tested on: ΔK280 TauRD‐DsRed; assay: Western blot of soluble ΔK280 TauRD‐DsRed in SH‐SY5Y cells; conditions: 1 µM, not significant
Method: To knock down CREB expression in ∆K280 TauRD-DsRed SH-SY5Y cells, lentiviral short hairpin RNA (shRNA) targeting CREB (TRCN0000226466), NRF2 (TRCN0000007558), and a negative control scrambled (TRC2.Void) were obtained from National RNAi Core Facility, IMB/GRC, Academia Sinica, Taipei, Taiwan. On day 1, cells were plated on 6-well plates (for protein analysis) or 24-well plates (for neurite outgrowth analysis) in the presence of retinoic acid as described. On the second day, the cells were infected with lentivirus (multiplicity of infection: 3) in medium with polybrene (8 µg/mL; Sigma-Aldrich). […] On day 9, the cells were collected for NRF2, CREB, pCREB, and cleaved CASP3 protein analysis or analyzed for neurite outgrowth as described.
as §1, with “After sonication and sitting on ice for 20 min, the lysates were centrifuged at 14,000 × g for 30 min at 4°C.” left out, “standard.” for “standard. Total proteins (20 µg) were electrophoresed on 10% or 12% SDS-polyacrylamide gel and transferred onto polyvinylidene difluoride (PVDF) membranes (Sigma-Aldrich) through reverse electrophoresis.”

[3] = tested on: NQO1; assay: Western blot of NQO1 in ∆K280 TauRD‐DsRed SH‐SY5Y cells; conditions: 1 µM; induced untreated 79%, uninduced 100%
Method: as §1

Structure (SMILES): O=C(c1ccccc1)c1cc2c(O)cccc2oc1=O [LM‐031, 3‐benzoyl‐5‐hydroxychromen‐2‐one]
- BDNF protein level, 14 kDa ([1]; induced untreated 82%): 155%
- BDNF protein level, 32 kDa ([1]; induced untreated 83%): 101%
- soluble TauRD‐DsRed protein level ([2]; CREB‐specific shRNA‐infected cells, untreated 86%): 104%
- soluble TauRD‐DsRed protein level ([2]; NRF2‐specific shRNA‐infected cells, untreated 82%): 103%
- NQO1 protein level [3]: 94%
